Assay results: patent publication US5567692A, “9-[(substituted glycyl) amido)]-6-demethyl-6-deoxytetracyclines” (priority 1995, dated 1996)
Where a name gives a salt, the structure may show the parent alone.

Columns and labels:
[1] = system: Proteus vulgaris; assay: MIC range, recent clinical and veterinary isolates; assay type: cell-based; conditions: 18 h, [18] isolates, read-out: MIC Range
[2] = system: Anaerobic Gram(+)Cocci; assay: MIC range, recent clinical and veterinary isolates; assay type: cell-based; conditions: 18 h; Anaerobic Gram(+)Cocci, [15] isolates; read-out: MIC Range
[3] = system: Providencia spp.; assay: MIC range, recent clinical and veterinary isolates; assay type: cell-based; conditions: 18 h, read-out: MIC Range
[4] = system: Staphylococcus Coagulase-negative, (methicillin-susceptible); assay: MIC range, recent clinical and veterinary isolates; assay type: cell-based; conditions: 18 h, [14] isolates
[5] = system: Staphylococcus Coagulase-negative, (methicillin-resistant); assay: MIC range, recent clinical and veterinary isolates; assay type: cell-based; conditions: 18 h, [16] isolates
[6] = system: Salmonella choleraesuis (Veterinary); assay: MIC range, recent clinical and veterinary isolates; assay type: cell-based; conditions: Salmonella enterica, 18 h, [15] isolates
[7] = system: Bacteroides spp.; assay: MIC range, recent clinical and veterinary isolates; assay type: cell-based; conditions: Bacteroides, 18 h, read-out: MIC Range
[8] = system: Clostridium spp.; assay: MIC range, recent clinical and veterinary isolates; assay type: cell-based; conditions: 18 h, [9] isolates
[9] = system: S. aureus UBMS 90-2 Tet M; assay: microbe, parasite or virus in culture; assay type: cell-based; conditions: S. aureus UBMS 90-2 Tet M; dihydrochloride
[10] = system: E. coli J3272 Tet D; assay: microbe, parasite or virus in culture; assay type: cell-based; conditions: dihydrochloride
[11] = system: S. aureus ATCC 29213; assay: MIC, agar dilution; assay type: cell-based; conditions: S. aureus ATCC 29213; dihydrochloride
[12] = system: S. aureus IVES 1983; assay: MIC, agar dilution; assay type: cell-based; conditions: S. aureus IVES 1983; dihydrochloride
[13] = system: S. aureus UBMS 90-3; assay: MIC, agar dilution; assay type: cell-based; conditions: Staphylococcus aureus, UBMS903, 18 h
[14] = system: Clostridium difficile; assay: MIC range, recent clinical and veterinary isolates; assay type: cell-based; conditions: Clostridioides difficile, 18 h; Clostridium difficile, [12] isolates; read-out: MIC Range
[15] = system: Enterococcus spp, (Vancomycin-resistant); assay: MIC range, recent clinical and veterinary isolates; assay type: cell-based; conditions: 18 h, [8] isolates
[16] = system: E. faecalis ATCC 29212; assay: MIC, agar dilution; assay type: cell-based; conditions: E. faecalis ATCC 29212
[17] = system: Xanthamonas maltophilia; assay: MIC range, recent clinical and veterinary isolates; assay type: cell-based; conditions: 18 h, read-out: MIC Range
[18] = system: Listeria monocytogenes; assay: MIC range, recent clinical and veterinary isolates; assay type: cell-based; conditions: 18 h, [8] isolates
[19] = system: Salmonella spp.; assay: MIC range, recent clinical and veterinary isolates; assay type: cell-based; conditions: 18 h, [11] isolates
[20] = system: Ps. aeruginosa ATCC 27853; assay: MIC, agar dilution; assay type: cell-based; conditions: Ps. aeruginosa ATCC 27853; dihydrochloride
[21] = system: Staphylococcus aureus strain Smith (tetracycline sensitive); assay: Acute lethal infection in mice, S. aureus Smith; assay type: in vivo; conditions: mice, S. aureus Smith (Sens), 7 day survival, dihydrochloride, 10080 min
[22] = system: Enterobacter aerogenes; assay: MIC range, recent clinical and veterinary isolates; assay type: cell-based; conditions: Klebsiella aerogenes, 18 h; Enterobacter aerogenes, [10] isolates; read-out: MIC Range
[23] = system: Staphylococcus aureus, (methicillin-resistant); assay: MIC range, recent clinical and veterinary isolates; assay type: cell-based; conditions: 18 h, [15] isolates
[24] = system: Escherichia coli; assay: MIC range, recent clinical and veterinary isolates; assay type: cell-based; conditions: 18 h, read-out: MIC Range
[25] = system: Bacteroides fragilis; assay: MIC range, recent clinical and veterinary isolates; assay type: cell-based; conditions: 18 h, [11] isolates
[26] = system: Citrobacter freundii; assay: MIC range, recent clinical and veterinary isolates; assay type: cell-based; conditions: 18 h, [10] isolates, read-out: MIC Range

Compound: CN(C)CC(=O)Nc1ccc2c(c1O)C(=O)C1=C(O)[C@]3(O)C(=O)C(C(N)=O)=C(O)[C@@H](N(C)C)C3CC1C2 (stereo partly drawn) [CC, [4S-(4alpha,12aalpha)]-4-(Dimethylamino)-9-[[(dimethylamino)acetyl]amino]-1,4,4a,5,5a,6,11,12a-octahydro-3,10,12,12a-tetrahydroxy-1,11-dioxo-2-naphthacenecarboxamide dihydrochloride]
- MIC [1]: 0.06 to 1 µg/mL
- MIC [2]: 0.015 to 0.12 µg/mL
- MIC [3]: 1 to 8 µg/mL
- MIC [4]: 0.06 to 4 µg/mL
- MIC [5]: 0.06 to 16 µg/mL
- MIC [6]: 0.5 to 8 µg/mL
- MIC [7]: 0.12 to 0.5 µg/mL
- MIC [8]: 0.03 to 0.12 µg/mL
- MIC [9]: 0.06 µg/mL
- MIC [10]: 0.03 µg/mL
- MIC [11]: < 0.015 µg/mL
- MIC [12]: 0.5 µg/mL
- MIC [13]: 0.03 µg/mL
- MIC [14]: 0.06 to 0.12 µg/mL
- MIC [15]: 0.03 to 0.12 µg/mL
- MIC [16]: 0.03 µg/mL
- MIC [17]: 1 to 8 µg/mL
- MIC [18]: 0.06 to 0.12 µg/mL
- MIC [19]: 0.25 to 0.5 µg/mL
- MIC [20]: 4 µg/mL
- ED50 ([21]; Intraveneous): 0.46 mg/kg
- ED50 ([21]; Oral): > 8 mg/kg
- MIC [22]: 0.25 to 1 µg/mL
- MIC [23]: 0.12 to 4 µg/mL
- MIC [24]: 0.25 to 4 µg/mL
- MIC [25]: 0.25 to 1 µg/mL
- MIC [26]: 0.5 to 8 µg/mL
